The values that follow come from patent US5393775A, “Benzopyran compounds” (Adir et Compagnie, priority 1992, dated 1995).

The test system of assay [1] is rat brain homogenates (peroxidation induced by the Fe^2+ /ascorbate system). Briefly: lipid peroxidation induced by Fe^2+/ascorbate on rat brain homogenates. In kind it is biochemical. To be noted: at 10^-5 M, 60 minutes at 37° C. As for the experimental part:
(§1) The action of the compounds of the invention, which are capable of trapping .OH radicals, was studied, on the one hand, on the spontaneous peroxidation of lipids and, on the other hand, on the peroxidation induced by the Fe^2+ /ascorbate (10 μm/250 μm) system on rat brain homogenates.
(§2) During the measurement of the spontaneous lipid peroxidation, the rat brain homogenates are placed in the presence or in the absence of the compounds to be tested for 60 minutes at 37° C. The reaction is halted at 0° C. and the quantitative determination of malondialdehyde is carried out using thiobarbituric acid by the method of Yagi, K., (1976), Biochem. Med., 15, 212-216. Lipid peroxidation is determined by the substances reacting with thiobarbituric acid expressed in nanomoles of malondialdehyde.
During the measurement of the induced lipid peroxidation, the methodology is identical to the above with the exception of the addition to the homogenate of the radical inductive system: Fe^2+ /ascorbate. The reference substances are probucol and vitamin E.
(§3) The concentrations of the tested compounds which inhibit by 50 % the peroxidation of the substrate or the antioxidizing activity of the compounds of the invention at a concentration of 10^-5 M are calculated.

Assay [2] deals with rat brain homogenates (spontaneous peroxidation of lipids). Briefly: spontaneous lipid peroxidation on rat brain homogenates. Type of assay: biochemical. The note with it: at 10^-5 M, 60 minutes at 37° C. The protocol:
as §1, §2, §3

Assay [3] relates to lipoxygenase of human polynuclear cells (LTB4). Briefly: inhibition of the synthesis of LTB4 (lipoxygenase) in human polynuclear cells activated by A23187. The note with it: for inhibition at 10 µM: at 10^-5 M; for IC50: read-out: INHIBITION OF THE SYNTHESIS OF LTB4, CON[…] BY 50% (IC50 in M), read-out: INHIBITION OF THE SYNTHESIS OF LTB4, CONCENTRATION INHIBITING SYNTHESIS BY 50% (IC50 in M). In kind it is cell-based. As for the experimental part: The inhibitory activity of the compounds of formula (I) used according to the invention on the synthesis of eicosanoids is measured on washed human polynuclear cells, in the presence or in the absence of the compound to be tested, after activation of these cells by calcium (calcium ionophore A23187).
The production of the main eicosanoid, resulting from lipoxygenase, produced by human polynuclear cells: leukotriene B4 (LTB4), is measured by a radioimmunological test.

As usually defined, the inhibition is the change of the read-out against control, counted positive when it falls.

SMILES strings stand for the structures.

As to `Cc1c(C)c2c(c(C)c1O)CCC(C)(C(=S)Nc1ccccc1)O2` (stereo not drawn) [Example 2, N-phenyl-6-hydroxy-3,4-dihydro-2,5,7,8-tetramethyl-2H-1-benzopyran-2-thiocarboxamide], the “INHIBITION OF THE PEROXIDATION WITH RESPECT TO THE CONTROL, INDUCED PEROXIDATION” value in assay [1] is 100. The “INHIBITION OF THE PEROXIDATION WITH RESPECT TO THE CONTROL, SPONTANEOUS PEROXIDATION” value in assay [2] came out at 100. For the same compound, in assay [3], the inhibition at 10 µM is above 99% and the IC50 worked out at 300 nM.
As to `Cc1cc(C)c(NC(=S)C2(C)CCc3c(C)c(O)c(C)c(C)c3O2)cc1C` (stereo not drawn) [Example 4, N-(2,4,5-trimethylphenyl)-6-hydroxy-3,4-dihydro-2,5,7,8-tetramethyl-2H-1-benzopyran-2-thiocarboxamide], the “INHIBITION OF THE PEROXIDATION WITH RESPECT TO THE CONTROL, INDUCED PEROXIDATION” value in assay [1] came out at 100. The “INHIBITION OF THE PEROXIDATION WITH RESPECT TO THE CONTROL, SPONTANEOUS PEROXIDATION” value in assay [2] is listed as 98. For the same compound, in assay [3], the inhibition at 10 µM is above 99% and the IC50 came out at 500 nM.
As for `Cc1cc(C)nc(NC(=S)C2(C)CCc3c(C)c(O)c(C)c(C)c3O2)c1` (stereo not drawn) [Example 6, N-(4,6-dimethylpyrid-2-yl)-6-hydroxy-3,4-dihydro-2,5,7,8-tetramethyl-2H-1-benzopyran-2-thiocarboxamide], in assay [3], the inhibition at 10 µM was above 99% and the IC50 stood at 600 nM.
`COc1cc(NC(=S)C2(C)CCc3c(C)c(O)c(C)c(C)c3O2)cc(OC)c1OC` (stereo not drawn) [Example 8, N-(3,4,5-trimethoxyphenyl)-6-hydroxy-3,4-dihydro-2,5,7,8-tetramethyl-2H-1-benzopyran-2-thiocarboxamide]: the inhibition at 10 µM in assay [3] is above 99%.
`Cc1cccc(C)c1NC(=S)C1(C)CCc2c(C)c(O)c(C)c(C)c2O1` (stereo not drawn) [Example 26, N-(2,6-dimethylphenyl)-6-hydroxy-3,4-dihydro-2,5,7,8-tetramethyl-2H-1-benzopyran-2-thiocarboxamide]: the “INHIBITION OF THE PEROXIDATION WITH RESPECT TO THE CONTROL, INDUCED PEROXIDATION” value in assay [1] is reported as 100. Further, in assay [2], the “INHIBITION OF THE PEROXIDATION WITH RESPECT TO THE CONTROL, SPONTANEOUS PEROXIDATION” value was 99. In assay [3], the inhibition at 10 µM is above 99% and the IC50 was found to be 500 nM.
Consider `Cc1c(C)c2c(c(C)c1O)CCC(C)(C(=S)N1CCN(c3ccccc3)CC1)O2` (stereo not drawn) [Example 84, 1-[(3,4-dihydro-6-hydroxy-2,5,7,8-tetramethyl-2H-1-benzopyran-2-yl)thiocarbonyl]-4-phenylpiperezine], for which, in assay [3], the inhibition at 10 µM is above 99% and the IC50 was 300 nM.
The matching figures for `Cc1c(C)c2c(c(C)c1O)CCC(C)(C(=S)N1CCN(c3ccccn3)CC1)O2` (stereo not drawn) [Example 86, 1-[(3,4-dihydro-6-hydroxy-2,5,7,8-tetramethyl-2H-1-benzopyran-2-yl)thiocarbonyl]-4-(2-pyridyl)piperazine]: above 99% and 200 nM.
The matching figures for `Cc1c(C)c2c(c(C)c1O)CCC(C)(C(=S)N1CCN(c3ccc(F)cc3)CC1)O2` (stereo not drawn) [Example 88, 1-[(3,4-dihydro-6-hydroxy-2,5,7,8-tetramethyl-2H-1-benzopyran-2-yl)thiocarbonyl]-4-(4-fluorophenyl)piperazine]: above 99% and 100 nM.
`Cc1c(C)c2c(c(C)c1O)CCC(C)(C(=S)N1CCN(c3ccc(Cl)cc3)CC1)O2` (stereo not drawn) [Example 92, 1-[(3,4-dihydro-6-hydroxy-2,5,7,8-tetramethyl-2H-1-benzopyran-2-yl)thiocarbonyl]-4-(4-chlorophenyl)piperazine]: in assay [3], the inhibition at 10 µM is above 99% and the IC50 is 200 nM.
The matching figures for `COc1ccc(CN2CCN(C(=S)C3(C)CCc4c(C)c(O)c(C)c(C)c4O3)CC2)c(OC)c1OC` (stereo not drawn) [Example 94, 1-[(3,4-dihydro-6-hydroxy-2,5,7,8-tetramethyl-2H-1-benzopyran-2-yl)thiocarbonyl]-4-(2,3,4-trimethoxybenzyl)piperazine]: above 99% and 300 nM.
On to `Cc1c(C)c2c(c(C)c1O)CCC(C)(C(=S)N1CCN(C(O)(c3ccccc3)c3ccccc3)CC1)O2` (stereo not drawn) [Example 98, 1-[(3,4-dihydro-6-hydroxy-2,5,7,8-tetramethyl-2H-1-benzopyran-2-yl)thiocarbonyl]-4-(1-hydroxy-1,1-diphenylmethyl)piperazine], for which, in assay [3], the inhibition at 10 µM was above 99% and the IC50 was 1300 nM.
